Like-named read-outs stand apart in the source and are kept apart here.
What was measured:
Assay type in all cases: biochemical
PI3Kβ = target: T1, PI3Kβ (Homo sapiens, UniProt P42338); assay: TR-FRET enzymatic activity assay, PI3Kβ
T1 construct: made in house

PI3Kγ = target: T2, PI3Kγ (Homo sapiens, UniProt P48736); assay: TR-FRET enzymatic activity assay, PI3Kγ; details: read-out: PI3Kγ IC50
T2 construct: made in house
Outline: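 Activity measured by time-resolved FRET; each isoform tested in its own enzymatic reaction.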

PI3Kδ = target: T3, PI3Kδ (Homo sapiens, UniProt O00329); assay: TR-FRET enzymatic activity assay, PI3Kδ
T3 construct: made in house
T3 sequence (O00329 whole entry): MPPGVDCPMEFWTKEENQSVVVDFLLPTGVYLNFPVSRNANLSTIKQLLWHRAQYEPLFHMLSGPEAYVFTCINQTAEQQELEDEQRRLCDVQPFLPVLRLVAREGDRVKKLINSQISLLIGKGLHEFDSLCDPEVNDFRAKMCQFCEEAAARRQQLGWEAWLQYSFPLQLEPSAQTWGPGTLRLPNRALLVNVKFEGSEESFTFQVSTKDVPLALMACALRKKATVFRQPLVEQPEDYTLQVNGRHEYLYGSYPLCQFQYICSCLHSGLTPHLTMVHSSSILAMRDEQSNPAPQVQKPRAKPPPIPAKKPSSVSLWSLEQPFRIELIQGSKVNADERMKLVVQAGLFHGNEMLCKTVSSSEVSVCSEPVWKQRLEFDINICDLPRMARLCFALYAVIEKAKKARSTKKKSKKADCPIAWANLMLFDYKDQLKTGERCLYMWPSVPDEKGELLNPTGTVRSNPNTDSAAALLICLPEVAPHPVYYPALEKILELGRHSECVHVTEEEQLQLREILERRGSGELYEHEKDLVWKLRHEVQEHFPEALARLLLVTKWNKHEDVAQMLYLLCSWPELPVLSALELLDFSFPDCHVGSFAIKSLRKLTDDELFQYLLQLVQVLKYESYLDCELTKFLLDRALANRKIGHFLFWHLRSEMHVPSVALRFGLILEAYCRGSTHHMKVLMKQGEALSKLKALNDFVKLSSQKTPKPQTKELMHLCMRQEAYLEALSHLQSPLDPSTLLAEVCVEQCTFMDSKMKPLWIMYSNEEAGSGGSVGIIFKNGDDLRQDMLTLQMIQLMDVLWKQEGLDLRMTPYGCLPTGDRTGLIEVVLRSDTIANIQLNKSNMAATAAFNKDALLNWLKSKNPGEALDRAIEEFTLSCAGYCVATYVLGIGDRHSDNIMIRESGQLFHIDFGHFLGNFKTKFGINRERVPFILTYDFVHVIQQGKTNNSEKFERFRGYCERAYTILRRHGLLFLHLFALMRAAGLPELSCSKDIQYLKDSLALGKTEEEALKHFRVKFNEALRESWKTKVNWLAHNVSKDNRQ
T3 sequence (P27986 whole entry partner): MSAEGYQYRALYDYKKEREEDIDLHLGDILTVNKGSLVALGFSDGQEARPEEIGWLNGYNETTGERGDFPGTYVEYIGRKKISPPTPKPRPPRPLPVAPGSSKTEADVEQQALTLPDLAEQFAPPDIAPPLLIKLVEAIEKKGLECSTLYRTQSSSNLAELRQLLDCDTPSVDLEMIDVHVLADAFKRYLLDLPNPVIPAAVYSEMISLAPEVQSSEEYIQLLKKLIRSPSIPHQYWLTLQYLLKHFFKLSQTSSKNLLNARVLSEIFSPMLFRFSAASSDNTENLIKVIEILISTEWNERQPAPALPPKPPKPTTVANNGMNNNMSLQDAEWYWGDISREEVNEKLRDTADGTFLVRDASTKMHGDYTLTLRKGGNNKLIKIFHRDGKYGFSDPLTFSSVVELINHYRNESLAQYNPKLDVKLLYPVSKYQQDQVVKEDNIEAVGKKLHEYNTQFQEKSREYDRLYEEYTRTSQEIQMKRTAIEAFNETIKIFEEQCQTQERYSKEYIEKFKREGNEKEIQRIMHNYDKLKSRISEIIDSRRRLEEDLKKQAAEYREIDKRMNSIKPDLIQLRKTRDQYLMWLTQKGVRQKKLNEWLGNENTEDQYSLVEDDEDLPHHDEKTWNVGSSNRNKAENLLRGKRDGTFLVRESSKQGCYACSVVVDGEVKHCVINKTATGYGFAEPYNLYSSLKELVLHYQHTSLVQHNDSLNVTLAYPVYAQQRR

[1] = Table 2, TR-FRET, 2x Km ATP, 30 minutes at 25° C.

T2 sequence (P48736 whole entry): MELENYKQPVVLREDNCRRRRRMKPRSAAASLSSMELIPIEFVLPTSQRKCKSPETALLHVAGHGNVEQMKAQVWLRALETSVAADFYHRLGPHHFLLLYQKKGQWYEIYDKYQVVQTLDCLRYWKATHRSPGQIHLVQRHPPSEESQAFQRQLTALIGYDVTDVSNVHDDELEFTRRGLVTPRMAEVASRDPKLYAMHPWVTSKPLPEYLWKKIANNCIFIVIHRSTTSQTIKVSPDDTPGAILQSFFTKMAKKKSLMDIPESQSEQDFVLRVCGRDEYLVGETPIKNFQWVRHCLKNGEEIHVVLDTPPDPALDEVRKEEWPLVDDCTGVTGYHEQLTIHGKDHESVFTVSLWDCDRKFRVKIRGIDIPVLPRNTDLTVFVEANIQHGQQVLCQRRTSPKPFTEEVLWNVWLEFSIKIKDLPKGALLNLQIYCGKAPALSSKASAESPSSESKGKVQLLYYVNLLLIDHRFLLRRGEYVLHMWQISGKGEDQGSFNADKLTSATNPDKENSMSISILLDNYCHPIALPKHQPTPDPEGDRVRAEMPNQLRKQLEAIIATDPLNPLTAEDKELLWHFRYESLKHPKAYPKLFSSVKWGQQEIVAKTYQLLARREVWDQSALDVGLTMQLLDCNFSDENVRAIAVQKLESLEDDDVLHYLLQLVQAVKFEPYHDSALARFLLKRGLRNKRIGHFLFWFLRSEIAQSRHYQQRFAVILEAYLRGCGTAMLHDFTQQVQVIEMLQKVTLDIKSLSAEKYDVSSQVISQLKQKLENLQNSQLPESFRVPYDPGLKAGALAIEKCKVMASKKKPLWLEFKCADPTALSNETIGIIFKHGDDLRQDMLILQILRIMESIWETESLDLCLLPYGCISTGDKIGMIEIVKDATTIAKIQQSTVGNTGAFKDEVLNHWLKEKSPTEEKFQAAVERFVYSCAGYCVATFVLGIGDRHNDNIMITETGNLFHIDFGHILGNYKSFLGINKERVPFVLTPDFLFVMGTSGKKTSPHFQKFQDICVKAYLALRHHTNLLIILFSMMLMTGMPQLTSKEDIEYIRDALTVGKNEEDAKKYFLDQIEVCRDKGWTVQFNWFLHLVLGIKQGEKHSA
T1 sequence (P42338 whole entry): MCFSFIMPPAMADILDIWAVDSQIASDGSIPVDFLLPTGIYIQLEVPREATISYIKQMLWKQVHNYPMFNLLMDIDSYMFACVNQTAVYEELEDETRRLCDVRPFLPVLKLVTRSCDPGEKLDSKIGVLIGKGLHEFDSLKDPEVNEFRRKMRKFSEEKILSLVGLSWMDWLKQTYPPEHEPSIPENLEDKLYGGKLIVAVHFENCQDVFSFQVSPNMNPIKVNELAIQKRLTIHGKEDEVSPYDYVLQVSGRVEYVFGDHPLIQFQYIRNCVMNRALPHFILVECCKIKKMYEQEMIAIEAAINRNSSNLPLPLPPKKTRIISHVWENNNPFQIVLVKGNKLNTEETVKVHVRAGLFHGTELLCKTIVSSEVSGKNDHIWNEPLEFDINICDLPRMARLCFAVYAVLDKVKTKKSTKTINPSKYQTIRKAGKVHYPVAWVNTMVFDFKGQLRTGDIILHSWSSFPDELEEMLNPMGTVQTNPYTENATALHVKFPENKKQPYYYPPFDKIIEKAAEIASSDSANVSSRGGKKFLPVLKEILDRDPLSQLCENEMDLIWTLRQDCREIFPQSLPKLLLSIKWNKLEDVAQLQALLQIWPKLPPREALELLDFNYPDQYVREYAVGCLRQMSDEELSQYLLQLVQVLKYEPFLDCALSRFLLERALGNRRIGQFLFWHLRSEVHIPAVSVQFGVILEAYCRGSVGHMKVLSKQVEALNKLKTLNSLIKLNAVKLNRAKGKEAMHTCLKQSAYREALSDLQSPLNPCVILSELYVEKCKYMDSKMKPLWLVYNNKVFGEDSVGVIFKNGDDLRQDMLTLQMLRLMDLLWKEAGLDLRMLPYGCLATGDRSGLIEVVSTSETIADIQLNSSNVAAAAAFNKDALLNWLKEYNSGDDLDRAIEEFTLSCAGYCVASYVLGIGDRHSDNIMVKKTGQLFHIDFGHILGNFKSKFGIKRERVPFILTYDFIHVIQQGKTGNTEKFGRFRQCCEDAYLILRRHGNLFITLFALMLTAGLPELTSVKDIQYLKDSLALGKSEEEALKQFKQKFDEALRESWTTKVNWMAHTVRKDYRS
T1 sequence (P27986 whole entry partner): as the sequence (P27986 whole entry partner) above

| IC50 (PI3Kβ; [1]) [nM] | IC50 (PI3Kγ; [1]) [nM] | IC50 (PI3Kδ; [1]) [nM] | IC50 (PI3Kγ) [nM] | IC50 (PI3Kβ; Table 2a, same assay) [nM] | IC50 (PI3Kγ; Table 2a, same assay) [nM] | IC50 (PI3Kδ; Table 2a, same assay) [nM] | Structure (SMILES) |
| --- | --- | --- | --- | --- | --- | --- | --- |
| 14 | 6700 | 12 | – | – | – | – | CCC[C@H](Nc1nc(N)nc(N)c1Cl)c1nc2cccc(Cl)c2c(=O)n1-c1cc[nH]n1 [Compound 124, (S)-5-chloro-2-(1-((2,6-diamino-5-chloropyrimidin-4-yl)amino)butyl)-3-(1H-pyrazol-3-yl)quinazolin-4(3h)-one] |
| 5 | 2800 | 3 | – | – | – | – | C[C@H](Nc1nc(N)nc(N)c1Cl)c1nc2cccc(C(F)F)c2c(=O)n1-c1cc[nH]n1 [Compound 126, (S)-2-(1-((2,6-diamino-5-chloropyrimidin-4-yl)amino)ethyl)-5-(difluoromethyl)-3-(1H-pyrazol-3-yl)quinazolin-4(3H)-one] |
| – | – | – | – | 75 | > 10000 | 42 | Nc1nc(N)c(Cl)c(N[C@H](c2nc3cccc(C(F)F)c3c(=O)n2-c2cc[nH]n2)C2CCC2)n1 [Compound 132, (S)-2-(cyclobutyl((2,6-diamino-5-chloropyrimidin-4-yl)amino)methyl)-5-(difluoromethyl)-3-(1H-pyrazol-3-yl)quinazolin-4(3H)-one] |
| – | – | – | – | 2 | 474 | 3 | N#Cc1c(N)nc(N)nc1N[C@H](c1nc2c(C(F)(F)F)cccc2c(=O)n1-c1cc[nH]n1)C1CC1 [Compound 133, (S)-2,4-diamino-6-((cyclopropyl(4-oxo-3-(1H-pyrazol-3-yl)-8-(trifluoromethyl)-3,4-dihydroquinazolin-2-yl)methyl)amino)pyrimidine-5-carbonitrile] |
| – | – | – | – | 37 | 9300 | 24 | Nc1nc(N)c(Cl)c(N[C@H](c2nc3c(C(F)(F)F)cccc3c(=O)n2-c2cc[nH]n2)C2CC2)n1 [Compound 134, (S)-2-(cyclopropyl((2,6-diamino-5-chloropyrimidin-4-yl)amino)methyl)-3-(1H-pyrazol-3-yl)-8-(trifluoromethyl)quinazolin-4(3H)-one] |
| – | – | – | – | 2 | 340 | 1 | C[C@H](Nc1nc(N)nc(N)c1C#N)c1nc2c(C(F)(F)F)cccc2c(=O)n1-c1cc[nH]n1 [Compound 135, (S)-2,4-diamino-6-((1-(4-oxo-3-(1H-pyrazol-3-yl)-8-(trifluoromethyl)-3,4-dihydroquinazolin-2-yl)ethyl)amino)pyrimidine-5-carbonitrile] |
| – | – | – | – | 9 | 5500 | 11 | C[C@H](Nc1nc(N)nc(N)c1Cl)c1nc2c(C(F)(F)F)cccc2c(=O)n1-c1cc[nH]n1 [Compound 136, (S)-2-(1-((2,6-diamino-5-chloropyrimidin-4-yl)amino)ethyl)-3-(1H-pyrazol-3-yl)-8-(trifluoromethyl)quinazolin-4(3H)-one] |
| – | – | – | – | 33 | > 10000 | 21 | C[C@H](Nc1nc(N)nc(N)c1C#N)c1nc2cc(Cl)ccc2c(=O)n1-c1cc[nH]n1 [Compound 139] |
| – | – | – | – | 2 | 6080 | 5 | C[C@H](Nc1nc(N)nc(N)c1C#N)c1nc2c(C(F)F)cc(F)cc2c(=O)n1-c1cc[nH]n1 [Compound 140] |
| – | – | – | – | 130 | > 10000 | 110 | C[C@H](Nc1nc(N)nc(N)c1Cl)c1nc2c(C(F)F)cc(F)cc2c(=O)n1-c1cc[nH]n1 [Compound 141, (S)-2-(1-((2,6-diamino-5-chloropyrimidin-4-yl)amino)ethyl)-8-(difluoromethyl)-6-fluoro-3-(1H-pyrazol-3-yl)quinazolin-4(3H)-one] |
| – | – | – | – | 130 | > 10000 | 190 | Nc1nc(N)c(Cl)c(N[C@H](c2nc3c(C(F)F)cc(F)cc3c(=O)n2-c2cc[nH]n2)C2CC2)n1 [Compound 144, (S)-2-(cyclopropyl((2,6-diamino-5-chloropyrimidin-4-yl)amino)methyl)-8-(difluoromethyl)-6-fluoro-3-(1H-pyrazol-3-yl)quinazolin-4(3H)-one] |
| – | – | – | – | 52 | > 10000 | 44 | Nc1nc(N)c(Cl)c(N[C@H](c2nc3c(Cl)ccc(F)c3c(=O)n2-c2cc[nH]n2)C2CC2)n1 [Compound 148, (S)-8-chloro-2-(cyclopropyl((2,6-diamino-5-chloropyrimidin-4-yl)amino)methyl)-5-fluoro-3-(1H-pyrazol-3-yl)quinazolin-4(3H)-one] |
| – | – | – | – | 93 | > 10000 | 210 | Nc1nc(N)c(Cl)c(N[C@@H](CO)c2nc3c(Cl)cc(F)cc3c(=O)n2-c2cc[nH]n2)n1 [Compound 149, (R)-8-chloro-2-(1-((2,6-diamino-5-chloropyrimidin-4-yl)amino)-2-hydroxyethyl)-6-fluoro-3-(1H-pyrazol-3-yl)quinazolin-4(3H)-one] |

Continued, compound first:

| Structure (SMILES) | IC50 (PI3Kβ; [1]) [nM] | IC50 (PI3Kγ; [1]) [nM] | IC50 (PI3Kδ; [1]) [nM] | IC50 (PI3Kγ) [nM] | IC50 (PI3Kβ; Table 2a, same assay) [nM] | IC50 (PI3Kγ; Table 2a, same assay) [nM] | IC50 (PI3Kδ; Table 2a, same assay) [nM] |
| --- | --- | --- | --- | --- | --- | --- | --- |
| C[C@H](NC(=O)c1nccnc1N)c1nc2cccc(Cl)c2c(=O)n1-c1cc[nH]n1 [Compound 121, (S)-3-amino-N-(1-(5-chloro-4-oxo-3-(1H-pyrazol-3-yl)-3,4-dihydroquinazolin-2-yl)ethyl)pyrazine-2-carboxamide] | 79 | 890 | 20 | – | – | – | – |
| CC[C@H](NC(=O)c1nccnc1N)c1nc2c(Cl)ccc(Cl)c2c(=O)n1-c1cn[nH]c1 [Compound 122, (S)-3-amino-N-(1-(5,8-dichloro-4-oxo-3-(1H-pyrazol-4-yl)-3,4-dihydroquinazolin-2-yl)propyl)pyrazine-2-carboxamide] | 640 | – | 200 | > 10000 | – | – | – |
| N#Cc1c(N)nc(N)nc1N[C@H](c1nc2cccc(Cl)c2c(=O)n1-c1cc[nH]n1)C1CCC1 [Compound 128, (S)-2,4-diamino-6-(((5-chloro-4-oxo-3-(1H-pyrazol-3-yl)-3,4-dihydroquinazolin-2-yl)(cyclobutyl)methyl)amino)pyrimidine-5-carbonitrile] | – | – | – | – | 2 | 2000 | 2 |
| Nc1nc(N)c(Cl)c(N[C@H](c2nc3c(Cl)cc(F)cc3c(=O)n2-c2cc[nH]n2)C2CCC2)n1 [Compound 129, (S)-8-chloro-2-(cyclobutyl((2,6-diamino-5-chloropyrimidin-4-yl)amino)methyl)-6-fluoro-3-(1H-pyrazol-3-yl)quinazolin-4(3H)-one] | – | – | – | – | 270 | > 10000 | 86 |
| N#Cc1c(N)nc(N)nc1N[C@H](c1nc2c(Cl)cc(F)cc2c(=O)n1-c1cc[nH]n1)C1CCC1 [Compound 130, (S)-2,4-diamino-6-(((8-chloro-6-fluoro-4-oxo-3-(1H-pyrazol-3-yl)-3,4-dihydroquinazolin-2-yl)(cyclobutyl)methyl)amino)pyrimidine-5-carbonitrile] | – | – | – | – | 4 | 7800 | 4 |
| N#Cc1c(N)nc(N)nc1N[C@H](c1nc2cccc(C(F)F)c2c(=O)n1-c1cc[nH]n1)C1CCC1 [Compound 131, (S)-2,4-diamino-6-((cyclobutyl(5-(difluoromethyl)-4-oxo-3-(1H-pyrazol-3-yl)-3,4-dihydroquinazolin-2-yl)methyl)amino)pyrimidine-5-carbonitrile] | – | – | – | – | 2 | 2000 | 4 |
| C[C@H](Nc1nc(N)nc(C(F)F)c1C#N)c1nc2c(C(F)F)cc(F)cc2c(=O)n1-c1cc[nH]n1 [Compound 142, (S)-2-amino-4-(difluoromethyl)-6-((1-(8-(difluoromethyl)-6-fluoro-4-oxo-3-(1H-pyrazol-3-yl)-3,4-dihydroquinazolin-2-yl)ethyl)amino)pyrimidine-5-carbonitrile] | – | – | – | – | 35 | > 10000 | 47 |
| N#Cc1c(N)nc(N)nc1N[C@H](c1nc2c(C(F)F)cc(F)cc2c(=O)n1-c1cc[nH]n1)C1CC1 [Compound 143, (S)-2,4-diamino-6-((cyclopropyl(8-(difluoromethyl)-6-fluoro-4-oxo-3-(1H-pyrazol-3-yl)-3,4-dihydroquinazolin-2-yl)methyl)amino)pyrimidine-5-carbonitrile] | – | – | – | – | 2 | 7500 | 3 |
| N#Cc1c(N[C@H](c2nc3c(C(F)F)cc(F)cc3c(=O)n2-c2cc[nH]n2)C2CC2)nc(N)nc1C(F)F [Compound 145, (S)-2-amino-4-((cyclopropyl(8-(difluoromethyl)-6-fluoro-4-oxo-3-(1H-pyrazol-3-yl)-3,4-dihydroquinazolin-2-yl)methyl)amino)-6-(difluoromethyl)pyrimidine-5-carbonitrile] | – | – | – | – | 28 | > 10000 | 46 |
| C[C@H](Nc1nc(N)nc(N)c1Cl)c1nc2c(Cl)ccc(F)c2c(=O)n1-c1cc[nH]n1 [Compound 147, (S)-8-chloro-2-(1-((2,6-diamino-5-chloropyrimidin-4-yl)amino)ethyl)-5-fluoro-3-(1H-pyrazol-3-yl)quinazolin-4(3H)-one] | – | – | – | – | 14 | > 10000 | 15 |
| C[C@H](Nc1ncnc2scc(Br)c12)c1nc2cccc(Cl)c2c(=O)n1-c1cc[nH]n1 [Compound 150, (S)-2-(1-((5-bromothieno[2,3-d]pyrimidin-4-yl)amino)ethyl)-5-chloro-3-(1H-pyrazol-3-yl)quinazolin-4(3H)-one] | – | – | – | – | 6 | 3000 | 2 |
| C[C@H](Nc1nc(N)nc(N)c1Cl)c1nc2c(F)ccc(F)c2c(=O)n1-c1cc[nH]n1 [Compound 152, (S)-2-(1-((2,6-diamino-5-chloropyrimidin-4-yl)amino)ethyl)-5,8-difluoro-3-(1H-pyrazol-3-yl)quinazolin-4(3H)-one] | – | – | – | – | 20 | > 10000 | 13 |
| C[C@H](Nc1nc(N)nc(N)c1Cl)c1nc2cccc(Cl)c2c(=O)n1-c1cc(Cl)[nH]n1 [Compound 154, (S)-5-chloro-3-(5-chloro-1H-pyrazol-3-yl)-2-(1-((2,6-diamino-5-chloropyrimidin-4-yl)amino)ethyl)quinazolin-4(3H)-one] | – | – | – | – | 100 | 3300 | 13 |

Source: patent US10308639B2, “Phosphatidylinositol 3-kinase inhibitors” (Gilead Sciences, Inc., priority 2014, dated 2019)
